Data published in ChEMBL document CHEMBL1151242, “A new antifungal metabolite from Penicillium expansum” (2004).

Each compound was assayed on Lasiodiplodia theobromae (assay: Antifungal activity against Lasiodiplodia theobromae OCS71 assessed as inhibition of mycelial growth at 100 ug/ml after 4 days by fungicide disk assay). Conditions: 96 h.
Format: functional
Compound COc1cc(O)c(C)c2c1CO[C@@H](C)C2 has an inhibition at 100 µg/mL of under 10%.
With COc1cc(O)c(C)c2c1[C@@H](OC)O[C@@H](C)C2 the inhibition at 100 µg/mL was 76%.
For COC1=CC(=O)C(C)=C2C[C@H](C)OC=C12, the inhibition at 100 µg/mL was 69%.
CCOC1O[C@@H](C)Cc2c(C)c(O)cc(OC)c21 (some centres undefined) gave an inhibition at 100 µg/mL of 74%.
